From ChEMBL document CHEMBL1201862, “PubChem BioAssay data set” (2004)
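Interpolation was linear, between the two tested concentrations surrounding the appropriate level; five concentrations were tested over 48 hours in 96-well plates. At the GI50, growth is halved.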 The source made the active and inactive calls. Rule as the data show it: active = GI50 up to about 1.1 µM and inactive = higher.

How the values were obtained:
Experiment in all cases: inhibition of tumour cell growth, NCI panel, 48 h
HOP-62 = test system: HOP-62
M14 = test system: M14
KM12 = test system: KM12
RXF 393 = test system: RXF 393
OVCAR-5 = test system: OVCAR-5
UO-31 = test system: UO-31
PC-3 = test system: PC-3
HOP-92 = test system: HOP-92
HT-29 = test system: HT-29
EKVX = test system: EKVX
Malme-3M = test system: Malme-3M
T47D = test system: T47D
SNB-75 = test system: SNB-75
NCI-H226 = test system: NCI-H226
CCRF-CEM = test system: CCRF-CEM
Hs-578T = test system: Hs-578T
NCI-H522 = test system: NCI-H522
U-251 = test system: U-251
NCI-H460 = test system: NCI-H460

Structure (SMILES) | GI50 (HOP-62) | GI50 (M14) | GI50 (KM12) | GI50 (RXF 393) | GI50 (OVCAR-5) | GI50 (UO-31) | GI50 (PC-3) | GI50 (HOP-92) | GI50 (HT-29) | GI50 (EKVX) | GI50 (Malme-3M) | GI50 (T47D) | GI50 (SNB-75) | GI50 (NCI-H226) | GI50 (CCRF-CEM) | GI50 (Hs-578T) | GI50 (NCI-H522) | GI50 (U-251) | GI50 (NCI-H460)
Cc1ccc(/C=C2\N=C(N3CCCC(CO)C3)NC2=O)cc1 (stereo not given) | > 100 µM (inactive) | > 100 µM (inactive) | > 100 µM (inactive) | > 100 µM (inactive) | > 100 µM (inactive) | > 100 µM (inactive) | > 100 µM (inactive) | > 100 µM (inactive) | > 100 µM (inactive) | > 100 µM (inactive) | > 100 µM (inactive) | > 100 µM (inactive) | > 100 µM (inactive) | > 100 µM (inactive) | > 100 µM (inactive) | > 100 µM (inactive) | > 100 µM (inactive) | > 100 µM (inactive) | –
CCC(CC)(CO)CNc1cc(Cl)nc(N)n1 | > 100 µM (inactive) | – | > 100 µM (inactive) | 67.1 µM (inactive) | > 100 µM (inactive) | > 100 µM (inactive) | > 100 µM (inactive) | 11.3 µM (inactive) | > 100 µM (inactive) | 79.3 µM (inactive) | > 100 µM (inactive) | 45.6 µM (inactive) | > 100 µM (inactive) | 77.1 µM (inactive) | > 100 µM (inactive) | > 100 µM (inactive) | > 100 µM (inactive) | > 100 µM (inactive) | > 100 µM (inactive)
Cn1c2ccccc2c(=NNc2cccc(C(=O)O)c2)c2ccccc21 | 12.7 µM (inactive) | 19.6 µM (inactive) | 23.3 µM (inactive) | 6.38 µM (inactive) | 14.4 µM (inactive) | 14.3 µM (inactive) | 4.92 µM (inactive) | 14.8 µM (inactive) | 3.1 µM (inactive) | 5.57 µM (inactive) | 20.1 µM (inactive) | 5.79 µM (inactive) | 23.9 µM (inactive) | 12.1 µM (inactive) | 6.41 µM (inactive) | 17.8 µM (inactive) | 5.05 µM (inactive) | 4.69 µM (inactive) | 4.86 µM (inactive)
COc1c2ccsc2c(OC)c2ccsc12 | 40.2 µM (inactive) | > 100 µM (inactive) | > 100 µM (inactive) | 35.2 µM (inactive) | > 100 µM (inactive) | > 100 µM (inactive) | > 100 µM (inactive) | 39.4 µM (inactive) | > 100 µM (inactive) | > 100 µM (inactive) | > 100 µM (inactive) | > 100 µM (inactive) | 42.6 µM (inactive) | > 100 µM (inactive) | > 100 µM (inactive) | 71.4 µM (inactive) | > 100 µM (inactive) | 95.7 µM (inactive) | > 100 µM (inactive)
CCN(CC)CCC(=O)O[C@H]1CC[C@H](CC(C)[C@H]2CC(=O)C(C)C=C(C)[C@H](OC(=O)CCN(CC)CC)C(OC)C(=O)[C@@H](C)CC(C)/C=C/C=C/C=C(C)C(OC)CC3CC[C@H](C)[C@](O)(O3)C(=O)C(=O)N3CCCCC3C(=O)O2)CC1OC (stereo not given in full) | < 0.01 µM (active) | 0.35 µM (active) | 0.443 µM (active) | 0.011 µM (active) | 1.31 µM (inactive) | < 0.01 µM (active) | < 0.0195 µM (active) | 0.0348 µM (active) | 0.21 µM (active) | 0.025 µM (active) | < 0.0108 µM (active) | 0.0144 µM (active) | 0.0179 µM (active) | 0.0209 µM (active) | < 0.0119 µM (active) | 0.0345 µM (active) | 0.0276 µM (active) | 0.0883 µM (active) | 0.157 µM (active)
N=C(N)NS(=O)(=O)c1ccc(NNc2c3ccccc3nc3c(C(=O)Nc4ccc(S(N)(=O)=O)cc4)cccc23)cc1 | 53.7 µM (inactive) | 83.4 µM (inactive) | 30.8 µM (inactive) | 40.6 µM (inactive) | 76 µM (inactive) | > 100 µM (inactive) | 36.1 µM (inactive) | 15.1 µM (inactive) | 23.4 µM (inactive) | 80.2 µM (inactive) | 20.6 µM (inactive) | 4.49 µM (inactive) | 26.4 µM (inactive) | 92 µM (inactive) | 8.24 µM (inactive) | 18.4 µM (inactive) | 14.7 µM (inactive) | 7.59 µM (inactive) | 19.7 µM (inactive)
CC(=O)O[C@H](C[C@@H](C)[C@H]1C(=O)[C@H](O)[C@@]2(C)C3CC[C@H]4C(C)(C)[C@@H](OC5OCC(O)C(O)C5O)CC[C@@]45C[C@@]35CC[C@]12C)[C@@H]1OC1(C)C (stereo not given in full) | 12.1 µM (inactive) | 31.1 µM (inactive) | 22.2 µM (inactive) | 16.8 µM (inactive) | 16.9 µM (inactive) | 22.9 µM (inactive) | 15.2 µM (inactive) | 16.9 µM (inactive) | 29.4 µM (inactive) | 18 µM (inactive) | 17.2 µM (inactive) | 17.4 µM (inactive) | 12.1 µM (inactive) | 17.5 µM (inactive) | 1.93 µM (inactive) | 38 µM (inactive) | 17.4 µM (inactive) | 16.3 µM (inactive) | 16.9 µM (inactive)
CCC1=CCC23C(=O)C=CC(=O)C2(C1)C(=O)c1cccc(OC)c1C3=O (stereo not given) | 22.7 µM (inactive) | 16 µM (inactive) | 20.9 µM (inactive) | 6.38 µM (inactive) | 16.2 µM (inactive) | 10.8 µM (inactive) | 14.9 µM (inactive) | 15.1 µM (inactive) | 20.3 µM (inactive) | 13.2 µM (inactive) | 15.9 µM (inactive) | 0.409 µM (active) | 15.6 µM (inactive) | 22.1 µM (inactive) | 3.26 µM (inactive) | 20.2 µM (inactive) | 31.8 µM (inactive) | 23 µM (inactive) | 28.2 µM (inactive)
O=C(/C=C1\Nc2ccccc2N\C1=C/C(=O)c1ccc(F)cc1)c1ccc(F)cc1 | 61 µM (inactive) | > 100 µM (inactive) | > 100 µM (inactive) | > 100 µM (inactive) | > 100 µM (inactive) | > 100 µM (inactive) | > 100 µM (inactive) | > 100 µM (inactive) | > 100 µM (inactive) | > 100 µM (inactive) | > 100 µM (inactive) | 63 µM (inactive) | > 100 µM (inactive) | > 100 µM (inactive) | 25.5 µM (inactive) | > 100 µM (inactive) | > 100 µM (inactive) | 73.6 µM (inactive) | 53.7 µM (inactive)
O=C(O)c1c2c(cc3c1CC(Cc1ccccc1)C3=O)CCC2 (stereo not given) | > 100 µM (inactive) | > 100 µM (inactive) | 65.8 µM (inactive) | > 100 µM (inactive) | > 100 µM (inactive) | 16.6 µM (inactive) | 64.3 µM (inactive) | 29.5 µM (inactive) | 57.8 µM (inactive) | > 100 µM (inactive) | > 100 µM (inactive) | > 100 µM (inactive) | > 100 µM (inactive) | > 100 µM (inactive) | 43.7 µM (inactive) | > 100 µM (inactive) | 74.6 µM (inactive) | > 100 µM (inactive) | 74.8 µM (inactive)
C/C=C/COc1cc(NC(=S)c2ccoc2C)ccc1OC | 34.7 µM (inactive) | > 100 µM (inactive) | > 100 µM (inactive) | > 100 µM (inactive) | > 100 µM (inactive) | 61.4 µM (inactive) | > 100 µM (inactive) | 16.7 µM (inactive) | > 100 µM (inactive) | 49.8 µM (inactive) | 89.1 µM (inactive) | 43.3 µM (inactive) | 27.7 µM (inactive) | > 100 µM (inactive) | > 100 µM (inactive) | 34 µM (inactive) | 66.1 µM (inactive) | 51.4 µM (inactive) | –
O=C(N/N=C/c1ccc([N+](=O)[O-])o1)c1ccc(C(=O)N/N=C/c2ccc([N+](=O)[O-])o2)cc1 | 47.8 µM (inactive) | 35.5 µM (inactive) | 28.5 µM (inactive) | 36.6 µM (inactive) | > 100 µM (inactive) | > 100 µM (inactive) | 64.7 µM (inactive) | 53.8 µM (inactive) | 38.6 µM (inactive) | > 100 µM (inactive) | 21.2 µM (inactive) | 41.3 µM (inactive) | > 100 µM (inactive) | > 100 µM (inactive) | 14.8 µM (inactive) | > 100 µM (inactive) | 48.3 µM (inactive) | 50.2 µM (inactive) | –
C=C1CCC2CC1[C@@H](C(=O)c1c[nH]c3ccccc13)NC2(C)C (stereo not given in full) | > 37.5 µM (inactive) | – | > 37.5 µM (inactive) | > 37.5 µM (inactive) | > 37.5 µM (inactive) | 29.5 µM (inactive) | 19.5 µM (inactive) | 13.2 µM (inactive) | 29.7 µM (inactive) | > 37.5 µM (inactive) | > 37.5 µM (inactive) | 30.6 µM (inactive) | > 37.5 µM (inactive) | > 37.5 µM (inactive) | > 37.5 µM (inactive) | > 37.5 µM (inactive) | > 37.5 µM (inactive) | > 37.5 µM (inactive) | > 37.5 µM (inactive)
O=C(CC(Cl)=C(Cl)Cl)c1ccccc1 | > 100 µM (inactive) | 49.5 µM (inactive) | 53.1 µM (inactive) | 21.2 µM (inactive) | 46 µM (inactive) | 80.2 µM (inactive) | > 100 µM (inactive) | > 100 µM (inactive) | 31.6 µM (inactive) | – | 31.8 µM (inactive) | 34.7 µM (inactive) | > 100 µM (inactive) | 28.9 µM (inactive) | 13.7 µM (inactive) | > 100 µM (inactive) | 23.9 µM (inactive) | 57.1 µM (inactive) | > 100 µM (inactive)
